# Measurements as given in patent publication US20250176550A1, “HERBICIDE COMPOSITION OF URACIL COMPOUND CONTAINING CARBOXYLATE FRAGMENT AND THE USE THEREOF” (Jiangsu Flag Chemical Industry Co., Ltd., priority 2022, published 2025).
# Assays:
# Assay type in all cases: in vivo
# eclipta prostrata [1] = experiment: Indoor virulence and combined effect, greenhouse pot test, post-emergence stem and leaf spray, fresh weight inhibition
# How it was run: (§1)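 Weeds in greenhouse pots received a spray-tower treatment, either post-emergence at the 3–4 leaf (grasses) or 4–6 leaf (broadleaf) stage, or pre-emergence as a soil spray 24 h after sowing. Compounds were applied in acetone diluted with 0.1 wt% Tween-80 water, alone or mixed, in g/ha. Fresh weight inhibition was measured at 21 days, with synergy judged by Gowing expected efficacy (E−E0 >10%).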
# veronica persica = experiment: as above
# How it was run: as §1
# setaria viridis = experiment: as above
# How it was run: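 Greenhouse potted weeds sprayed post-emergence on stem and leaf at 3–4 leaf stage, with A and B alone or mixed; acetone solutions diluted in 0.1 wt% Tween-80, solvent-emulsifier water as blank.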
# digitaria sanguinalis = experiment: Indoor virulence and combined effect, greenhouse pot test, pre-emergence soil spray treatment, fresh weight inhibition
# Protocol: (§2) The active ingredients A and B are respectively screened and an indoor combined effect of the composition on weeds was evaluated by an indoor test and a field test, to determine a combined effect of the composition on weeds.
# (§3) Quantitative seeds of Poaceae weeds (echinochloa crusgalli, Digitaria sanguinalis, setaria viridis, Eleusine indica, avena fatua, alopecurus japonicus, alopecurus aequalis, Lolium multiflorum) and broadleaf weeds (eclipta prostrata, rorippa dubia, Abutilon theophrasti, conyza canadensis, veronica persica, myosoton aquaticum, polygonum lapathifolium, galium aparine var. tenerum, alisma plantago-aquatica, geranium carolinianum) were sown in paper cup containing nutrient soil with a diameter of 7 cm, covered with soil for 1 cm after sowing. After pressing and watering, they were cultured in a greenhouse according to a conventional method. Poaceae weeds grew to 3˜4 leaf stage, broad-leaved weeds grew to 4˜6 leaf stage, spraying treatment to both stem and leaf was performed; and pre-seedling soil spray treatment was performed 24 hours after sowing. Following an experimental design dosage, a WP-2000 walking spray tower (spindle speed 96 mm/r, spray height 200 mm, effective spray amplitude of nozzle 350 mm, nozzle flow rate 390 mL/min, nozzle walking speed 210 mm/s) was used for the spray treatment. The experiment was repeated three times. After being treated, a sample material is placed in an operation hall, and after the drug solution is naturally dried out, the sample material is placed in a greenhouse and managed according to the conventional method. A reaction of weeds to the drug agent is observed and recorded, and a regularly visual check of a control effect of the drug agent on weeds was performed after the treatment.
# (§4) All of original drugs were using acetone as a solvent, being diluted with 0.1 wt % emulsifier of Tween-80 aqueous solution, and being diluted right before using.
# (§5) When determining a ratio or content of the active ingredient A and the active ingredient B, it should be measured from characteristics of action of both agents and virulence thereof, as well as the main purpose of use of a formula shall also be considered in. In the present study, on a basis of previous pre-test, the dosages of the active ingredient A and the active ingredient B were set, when being used alone and mixed, as shown in the following table. Water containing no agent, but containing the same solvent and emulsifier was used as a blank control.
# (§6) Repeat 4 times for each treatment, 3 pots per treatment each time and 30 weed seeds were sown for each pot.
# (§7) Adopting an absolute number survey method, using a blade to cut the whole seedling of surviving weed along soil surface, and weighting the fresh weight of the weed with an analytical balance. For weeds that had died, counting the fresh weight as zero.
# (§8) Survey period and frequency: 21 days after the treatment, total 1 investigation.
# (§9) The theoretical fresh weight inhibition rate (E0-Expected Efficacy=[…]) of each treatment combination was calculated by Gowing method, and then compared with the measured inhibition rate (E-Observed Efficacy) to evaluate the combined effect type of both on weeds. When E-E0 value was greater than 10%, it was counted as a synergistic effect, less than −10%, it was counted as an antagonistic effect, and between −10%˜10%, it was counted as an additive effect. According to a plurality of factors including an actual control efficacy, a herbicide characteristic, a formula balance and other factors to determine the best ratio. In the formula, X is the fresh weight inhibition rate of the ingredient A at a dosage of P; Y is the fresh weight inhibition rate of the active ingredient B at a dosage of Q.
# (§10) The statistical results are shown in Table 1 to Table 44 below, except for those marked clearly as “pre-emergence treatment”, all others are “post-emergence treatment”. […]
# eclipta prostrata [2] = experiment: as above
# Protocol: as §2, §3, §4, §5, §6, §7, §8, §9, §10
# eleusine indica = experiment: as above
# Protocol: as §2, §3, §4, §5, §6, §7, §8, §9, §10
structure (smiles),measurement,setting,value
COCCOC(=O)C(C)(C)OC(=O)c1cc(-n2c(=O)cc(C(F)(F)F)n(C)c2=O)c(F)cc1Cl [Compound A-273],"Fresh weight inhibition rate %, A single agent","eclipta prostrata [1]; Table 11, A 2 g a.i./ha",28.12%
same,"Fresh weight inhibition rate %, A single agent","eclipta prostrata [1]; Table 11, A 4 g a.i./ha",38.50%
same,"Fresh weight inhibition rate %, A single agent","eclipta prostrata [1]; Table 11, A 8 g a.i./ha",46.05%
same,"Fresh weight inhibition rate %, A single agent","eclipta prostrata [1]; Table 11, A 16 g a.i./ha",52.89%
same,"Fresh weight inhibition rate %, A single agent","eclipta prostrata [1]; Table 12, A 4 g a.i./ha",38.50%
same,"Fresh weight inhibition rate %, A single agent","eclipta prostrata [1]; Table 12, A 8 g a.i./ha",46.05%
same,"Fresh weight inhibition rate %, A single agent","eclipta prostrata [1]; Table 12, A 16 g a.i./ha",52.89%
same,"Fresh weight inhibition rate %, A single agent","eclipta prostrata [1]; Table 42, A 2 g a.i./ha",28.12%
same,"Fresh weight inhibition rate %, A single agent","eclipta prostrata [1]; Table 42, A 4 g a.i./ha",38.50%
same,"Fresh weight inhibition rate %, A single agent","eclipta prostrata [1]; Table 42, A 8 g a.i./ha",46.05%
same,"Fresh weight inhibition rate %, A single agent","eclipta prostrata [1]; Table 42, A 16 g a.i./ha",52.89%
same,"Fresh weight inhibition rate %, A single agent","eclipta prostrata [1]; Table 43, A 4 g a.i./ha",38.50%
same,"Fresh weight inhibition rate %, A single agent","eclipta prostrata [1]; Table 43, A 8 g a.i./ha",46.05%
CCOC(=O)C(C)(C)OC(=O)c1cc(-n2c(=O)cc(C(F)(F)F)n(C)c2=O)c(F)cc1Cl [Compound A-250],"Fresh weight inhibition rate %, A single agent","veronica persica; Table 9, 10 g a.i./ha, post-emergence, 21 days after treatment",68.79%
same,"Fresh weight inhibition rate %, A single agent","veronica persica; Table 9, 15 g a.i./ha, post-emergence, 21 days after treatment",70.47%
same,"Fresh weight inhibition rate %, A single agent","veronica persica; Table 9, 20 g a.i./ha, post-emergence, 21 days after treatment",82.86%
same,"Fresh weight inhibition rate %, A single agent","veronica persica; Table 23, A 5 g a.i./ha",62.6%
same,"Fresh weight inhibition rate %, A single agent","veronica persica; Table 23, A 10 g a.i./ha",68.79%
same,"Fresh weight inhibition rate %, A single agent","veronica persica; Table 23, A 15 g a.i./ha",70.47%
same,"Fresh weight inhibition rate %, A single agent","veronica persica; Table 24, A 5 g a.i./ha",62.6%
same,"Fresh weight inhibition rate %, A single agent","veronica persica; Table 24, A 10 g a.i./ha",68.79%
same,"Fresh weight inhibition rate %, A single agent","veronica persica; Table 24, A 15 g a.i./ha",70.47%
same,"Fresh weight inhibition rate %, A single agent","veronica persica; Table 24, A 20 g a.i./ha",82.86%
same,"Fresh weight inhibition rate %, A single agent","veronica persica; Table 26, A 2 g a.i./ha",24.6%
same,"Fresh weight inhibition rate %, A single agent","veronica persica; Table 26, A 5 g a.i./ha",62.6%
same,"Fresh weight inhibition rate %, A single agent","veronica persica; Table 26, A 10 g a.i./ha",68.79%
same,"Fresh weight inhibition rate %, A single agent","veronica persica; Table 26, A 15 g a.i./ha",70.47%
same,"Fresh weight inhibition rate %, A single agent","setaria viridis; Table 6, 10 g a.i./ha, post-emergence, 21 days after treatment",52.54%
same,"Fresh weight inhibition rate %, A single agent","setaria viridis; Table 6, 15 g a.i./ha, post-emergence, 21 days after treatment",65.7%
same,"Fresh weight inhibition rate %, A single agent","setaria viridis; Table 6, 20 g a.i./ha, post-emergence, 21 days after treatment",78.77%
same,"Fresh weight inhibition rate %, A single agent","setaria viridis; Table 8, 10 g a.i./ha, post-emergence, 21 days after treatment",52.54%
same,"Fresh weight inhibition rate %, A single agent","setaria viridis; Table 8, 15 g a.i./ha, post-emergence, 21 days after treatment",65.7%
same,"Fresh weight inhibition rate %, A single agent","setaria viridis; Table 8, 20 g a.i./ha, post-emergence, 21 days after treatment",78.77%
same,"Fresh weight inhibition rate %, A single agent","setaria viridis; Table 10, A 10 g a.i./ha",52.54%
same,"Fresh weight inhibition rate %, A single agent","setaria viridis; Table 10, A 15 g a.i./ha",65.7%
same,"Fresh weight inhibition rate %, A single agent","setaria viridis; Table 10, A 20 g a.i./ha",78.77%
same,"Fresh weight inhibition rate %, A single agent","digitaria sanguinalis; Table 39, A 15 g a.i./ha",68.96%
same,"Fresh weight inhibition rate %, A single agent","digitaria sanguinalis; Table 39, A 20 g a.i./ha",75.50%
same,"Fresh weight inhibition rate %, A single agent","digitaria sanguinalis; Table 39, A 25 g a.i./ha",85.50%
same,"Fresh weight inhibition rate %, A single agent","digitaria sanguinalis; Table 40, A 15 g a.i./ha",68.96%
same,"Fresh weight inhibition rate %, A single agent","digitaria sanguinalis; Table 40, A 20 g a.i./ha",75.50%
same,"Fresh weight inhibition rate %, A single agent","eclipta prostrata [2]; Table 28, A 5 g a.i./ha",52.89%
same,"Fresh weight inhibition rate %, A single agent","eclipta prostrata [2]; Table 28, A 10 g a.i./ha",66.05%
same,"Fresh weight inhibition rate %, A single agent","eclipta prostrata [2]; Table 28, A 15 g a.i./ha",68.5%
same,"Fresh weight inhibition rate %, A single agent","eclipta prostrata [2]; Table 28, A 20 g a.i./ha",78.12%
same,"Fresh weight inhibition rate %, A single agent","eleusine indica; Table 21, A 25 g a.i./ha",69.44%
same,"Fresh weight inhibition rate %, A single agent","eleusine indica; Table 21, A 30 g a.i./ha",90.86%
